Consider 15 compounds from US20240124417A1, “COMPOUNDS USEFUL AS IMMUNOMODULATORS” (Bristol-Myers Squibb Company, priority 2019, published 2024).

What is called IC50 is the concentration that gives 50% inhibition. High values mean weaker potency in that assay, low ones greater potency in that assay.

T1 sequence (Q9NZQ7 18-239): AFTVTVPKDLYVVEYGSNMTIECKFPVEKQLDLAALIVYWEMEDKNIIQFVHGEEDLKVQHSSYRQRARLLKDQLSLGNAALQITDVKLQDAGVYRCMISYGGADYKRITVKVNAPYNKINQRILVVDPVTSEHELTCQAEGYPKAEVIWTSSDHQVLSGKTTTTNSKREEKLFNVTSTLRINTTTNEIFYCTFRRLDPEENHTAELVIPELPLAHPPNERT

The test concerns the target T1, PD-1/PD-L1 (Homo sapiens, UniProt Q9NZQ7).
T1 construct: TVMV protease site linker (C); made in house; host or cells: HEK293T cells
The test is described as follows: PD-1/PD-L1 Homogenous Time-Resolved Fluorescence (HTRF) binding assay. As to conditions: PD-L1-His 10 nM, PD-1-Ig 20 nM. In short, it runs like this: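 Inhibitors pre-incubated 15 min with PD-L1-His extracellular domain (10 nM final) in dPBS with 0.1% BSA and 0.05% Tween-20, then PD-1-Ig (20 nM final) added for a further 15 min. Read-out by HTRF with europium cryptate anti-Ig (1 nM) and APC anti-His (20 nM). Related pairs: PD-1-Ig/PD-L2-His (20/5 nM), CD80-His/PD-L1-Ig (100/10 nM).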
In turn, `Cc1c(COc2cc(OCc3cncc(C#N)c3)c(CNCc3ccc4c(N)n[nH]c4c3)cc2Cl)cccc1-c1cccc(OCC2CCCN(C)C2)c1Cl` (stereo not drawn) [Example 2610, 5-((2-((((3-amino-1H-indazol-6-yl)methyl)amino)methyl)-4-chloro-5-((2′-chloro-2-methyl-3′-((1-methylpiperidin-3-yl)methoxy)-[1,1′-biphenyl]-3-yl)methoxy)phenoxy)methyl)nicotinonitrile] displayed an IC50 of 0.8 nM.

As for `Cc1c(COc2cc(OCc3cncc(C#N)c3)c(CNCc3nc4ccccc4s3)cc2Cl)cccc1-c1cccc(OCC2CCCN(C)C2)c1Cl` (stereo not drawn) [Example 2611, 5-((2-(((benzo[d]thiazol-2-ylmethyl)amino)methyl)-4-chloro-5-((2′-chloro-2-methyl-3′-((1-methylpiperidin-3-yl)methoxy)-[1,1′-biphenyl]-3-yl)methoxy)phenoxy)methyl)nicotinonitrile], the IC50 amounted to 5.9 nM.

For `Cc1c(COc2cc(OCc3cncc(C#N)c3)c(CNCc3ncc(-c4ccccc4)o3)cc2Cl)cccc1-c1cccc(OCC2CCCN(C)C2)c1Cl` (stereo not drawn) [Example 2612, 5-((4-chloro-5-((2′-chloro-2-methyl-3′-((1-methylpiperidin-3-yl)methoxy)-[1,1′-biphenyl]-3-yl)methoxy)-2-((((5-phenyloxazol-2-yl)methyl)amino)methyl)phenoxy)methyl)nicotinonitrile], the IC50 stood at 7.3 nM.

Compound `Cc1c(COc2cc(OCc3cncc(C#N)c3)c(CNCCc3nc4cc(Cl)ccc4[nH]3)cc2Cl)cccc1-c1cccc(OCC2CCCN(C)C2)c1Cl` (stereo not drawn) [Example 2613, 5-((4-chloro-2-(((2-(5-chloro-1H-benzo[d]imidazol-2-yl)ethyl)amino)methyl)-5-((2′-chloro-2-methyl-3′-((1-methylpiperidin-3-yl)methoxy)-[1,1′-biphenyl]-3-yl)methoxy)phenoxy)methyl)nicotinonitrile] gave a concentration for half-maximal inhibition (IC50) of 2.2 nM.

For `Cc1c(COc2cc(OCc3cncc(C#N)c3)c(CNCc3ccnn3C)cc2Cl)cccc1-c1cccc(OCC2CCCN(C)C2)c1Cl` (stereo not drawn) [Example 2614, 5-((4-chloro-5-((2′-chloro-2-methyl-3′-((1-methylpiperidin-3-yl)methoxy)-[1,1′-biphenyl]-3-yl)methoxy)-2-((((1-methyl-1H-pyrazol-5-yl)methyl)amino)methyl)phenoxy)methyl)nicotinonitrile], the IC50 is 1.7 nM.

Compound `Cc1c(COc2cc(OCc3cncc(C#N)c3)c(CNCc3nc4ccccc4[nH]3)cc2Cl)cccc1-c1cccc(OCC2CCCN(C)C2)c1Cl` (stereo not drawn) [Example 2616, 5-((2-((((1H-benzo[d]imidazol-2-yl)methyl)amino)methyl)-4-chloro-5-((2′-chloro-2-methyl-3′-((1-methylpiperidin-3-yl)methoxy)-[1,1′-biphenyl]-3-yl)methoxy)phenoxy)methyl)nicotinonitrile] gave an IC50 of 1.9 nM.

`Cc1c(COc2cc(OCc3cncc(C#N)c3)c(CN(C)Cc3csc(N)n3)cc2Cl)cccc1-c1cccc(OCC2CCCN(C)C2)c1Cl` (stereo not drawn) [Example 2617, 5-((2-((((2-aminothiazol-4-yl)methyl)(methyl)amino)methyl)-4-chloro-5-((2′-chloro-2-methyl-3′-((1-methylpiperidin-3-yl)methoxy)-[1,1′-biphenyl]-3-yl)methoxy)phenoxy)methyl)nicotinonitrile] showed an IC50 of 1.8 nM.

For the compound `Cc1c(COc2cc(OCc3cncc(C#N)c3)c(CN(C)Cc3nc[nH]n3)cc2Cl)cccc1-c1cccc(OCC2CCCN(C)C2)c1Cl` (stereo not drawn) [Example 2618, 5-((2-((((1H-1,2,4-triazol-3-yl)methyl)(methyl)amino)methyl)-4-chloro-5-((2′-chloro-2-methyl-3′-((1-methylpiperidin-3-yl)methoxy)-[1,1′-biphenyl]-3-yl)methoxy)phenoxy)methyl)nicotinonitrile], the IC50 is 0.7 nM.

As to `Cc1c(COc2cc(OCc3cncc(C#N)c3)c(CNCc3nnc4ccc(C(F)(F)F)cn34)cc2Cl)cccc1-c1cccc(OCC2CCCN(C)C2)c1Cl` (stereo not drawn) [Example 2619, 5-((4-chloro-5-((2′-chloro-2-methyl-3′-((1-methylpiperidin-3-yl)methoxy)-[1,1′-biphenyl]-3-yl)methoxy)-2-((((6-(trifluoromethyl)-[1,2,4]triazolo[4,3-a]pyridin-3-yl)methyl)amino)methyl)phenoxy)methyl)nicotinonitrile], the IC50 stood at 3.1 nM.

In turn, `Cc1c(COc2cc(OCc3cncc(C#N)c3)c(CNC(C)(C)c3ncon3)cc2Cl)cccc1-c1cccc(OCC2CCCN(C)C2)c1Cl` (stereo not drawn) [Example 2620, 5-((2-(((2-(1,2,4-oxadiazol-3-yl)propan-2-yl)amino)methyl)-4-chloro-5-((2′-chloro-2-methyl-3′-((1-methylpiperidin-3-yl)methoxy)-[1,1′-biphenyl]-3-yl)methoxy)phenoxy)methyl)nicotinonitrile] showed an IC50 of 4.7 nM.

In turn, `Cc1c(COc2cc(OCc3cncc(C#N)c3)c(CNCc3cccnc3Cl)cc2Cl)cccc1-c1cccc(OCC2CCCN(C)C2)c1Cl` (stereo not drawn) [Example 2621, 5-((4-chloro-5-((2′-chloro-2-methyl-3′-((1-methylpiperidin-3-yl)methoxy)-[1,1′-biphenyl]-3-yl)methoxy)-2-((((2-chloropyridin-3-yl)methyl)amino)methyl)phenoxy)methyl)nicotinonitrile] came in with an IC50 of 8.9 nM.

In the case of `CCc1csc(CNCc2cc(Cl)c(OCc3cccc(-c4cccc(OCC5CCCN(C)C5)c4Cl)c3C)cc2OCc2cncc(C#N)c2)n1` (stereo not drawn) [Example 2622, 5-((4-chloro-5-((2′-chloro-2-methyl-3′-((1-methylpiperidin-3-yl)methoxy)-[1,1′-biphenyl]-3-yl)methoxy)-2-((((4-ethylthiazol-2-yl)methyl)amino)methyl)phenoxy)methyl)nicotinonitrile], the IC50 was found to be 8.3 nM.

Consider `Cc1c(COc2cc(OCc3cncc(C#N)c3)c(CNCc3ncc4ccccn34)cc2Cl)cccc1-c1cccc(OCC2CCCN(C)C2)c1Cl` (stereo not drawn) [Example 2623, 5-((4-chloro-5-((2′-chloro-2-methyl-3′-((1-methylpiperidin-3-yl)methoxy)-[1,1′-biphenyl]-3-yl)methoxy)-2-(((imidazo[1,5-a]pyridin-3-ylmethyl)amino)methyl)phenoxy)methyl)nicotinonitrile], for which the IC50 worked out at 6.1 nM.

Take `[2H]C([2H])([2H])C(NCc1cc(Cl)c(OCc2cccc(-c3cccc(OCC4CCCN(C)C4)c3Cl)c2C)cc1OCc1cncc(C#N)c1)(c1ncon1)C([2H])([2H])[2H]` (stereo not drawn) [Example 2624, 5-((2-(((2-(1,2,4-oxadiazol-3-yl)propan-2-yl-1,1,1,3,3,3-d6)amino)methyl)-4-chloro-5-((2′-chloro-2-methyl-3′-((1-methylpiperidin-3-yl)methoxy)-[1,1′-biphenyl]-3-yl)methoxy)phenoxy)methyl)nicotinonitrile]: the IC50 worked out at 3 nM.

The compound `Cc1c(COc2cc(OCc3cncc(C#N)c3)c(CNC3(c4ncon4)CC(OCc4ccccc4)C3)cc2Cl)cccc1-c1cccc(OCC2CCCN(C)C2)c1Cl` (stereo not drawn) [Example 2625, 5-((2-(((3-(benzyloxy)-1-(1,2,4-oxadiazol-3-yl)cyclobutyl)amino)methyl)-4-chloro-5-((2′-chloro-2-methyl-3′-((1-methylpiperidin-3-yl)methoxy)-[1,1′-biphenyl]-3-yl)methoxy)phenoxy)methyl)nicotinonitrile] showed an IC50 of 35.3 nM.
